Oc1ccccc1/C=N/c1ccccn1
solubility (mole fraction)
Details | 268.15 K | 273.15 K | 278.15 K | 283.15 K | 288.15 K | 293.15 K | 298.15 K
in diethyl ether | 0.0581 | 0.0673 | 0.0873 | 0.107 | 0.14 | 0.17 | 0.231
in ethanol | 0.0099 | 0.0121 | 0.0152 | 0.0199 | 0.0266 | 0.035 | 0.0489
in methanol | 0.00796 | 0.0107 | 0.0146 | 0.0187 | 0.0255 | 0.0346 | 0.0503
in toluene | 0.135 | 0.174 | 0.215 | 0.26 | 0.316 | 0.361 | 0.423

Oc1ccc(Cl)cc1C=Nc1ccccn1
solubility (mole fraction)
Details | 268.15 K | 273.15 K | 278.15 K | 283.15 K | 288.15 K | 293.15 K | 298.15 K | 303.15 K
in THF | 0.0285 | 0.0323 | 0.0362 | 0.0406 | 0.0466 | 0.0545 | 0.0649 | 0.0735
in dichloromethane | 0.00836 | 0.0124 | 0.0166 | 0.0193 | 0.0247 | 0.0306 | 0.0355 | 0.0429
in diethyl ether | 0.00329 | 0.00427 | 0.00513 | 0.00605 | 0.00728 | 0.00844 | 0.0105 | 0.0121
in toluene | 0.0103 | 0.0111 | 0.0136 | 0.017 | 0.0192 | 0.0228 | 0.0277 | 0.0339

Reference: BigSolDB 2.1
